Among the data in US20240246908A1 (ORION CORPORATION, priority 2021, published 2024) are IC50 values, retold here.

For this experiment, the system named is YAP-TEAD. In words: TEAD inhibition, Hippo Pathway TEAD Reporter MCF-7 luciferase assay. Type of experiment: cell-based. To be noted: Homo sapiens, MCF7, 24 h, Hippo Pathway TEAD Reporter MCF-7 cells, luciferase activity after 24 h; read-out: IC50 of the test compounds on YAP-TEAD inhibition (Group). The method in brief: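 IC50 derived from ONE-Glo luciferase luminescence after 24 h compound exposure (11 concentrations in quadruplicate, 0.1% DMSO control). Reporter: MCF-7 line expressing firefly luciferase under TEAD elements, constitutively activated by nuclear YAP1.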

With `COc1ccc(Oc2ccc(F)c(F)c2)cc1NC(=O)C1CCC(=O)N1C(C)C` (centres unmarked) [Compound 82, N-(5-(3,4-Difluorophenoxy)-2-methoxyphenyl)-1-isopropyl-5-oxopyrrolidine-2-carboxamide], the IC50 was 50 to 300 nM.
Under `COc1ccc(Sc2ccc(F)c(F)c2)cc1NC(=O)C1CCC(=O)N1` (centres unmarked) [Compound 298, N-(5-((3,4-Difluorophenyl)thio)-2-methoxyphenyl)-5-oxopyrrolidine-2-carboxamide] stands less than 50 nM; under `CN1C(=O)CCC1C(=O)Nc1cc(Oc2ccc(F)c(F)c2)ccc1-c1ccn(C)n1` (centres unmarked) [Compound 85, N-(5-(3,4-Difluorophenoxy)-2-(1-methyl-1H-pyrazol-3-yl)phenyl)-1-methyl-5-oxopyrrolidine-2-carboxamide], 301 to 2000 nM; under `COc1ccc(/C=C/C2CCC(F)(F)CC2)cc1NC(=O)C1CN(C)C(=O)N1C` (centres unmarked) [Compound 408, (E)-N-(5-(2-(4,4-Difluorocyclohexyl)vinyl)-2-methoxyphenyl)-1,3-dimethyl-2-oxoimidazolidine-4-carboxamide], 50 to 300 nM.
As for `COc1ccc(Oc2cc(C(F)(F)F)ccn2)cc1NC(=O)C1CNC(=O)N1C` (centres unmarked) [Compound 200, N-(2-Methoxy-5-((4-(trifluoromethyl)pyridin-2-yl)oxy)phenyl)-3-methyl-2-oxoimidazolidine-4-carboxamide], the figure is 50 to 300 nM; as for `CN1C(=O)CCC1C(=O)Nc1cc(OCc2cccc(C(F)(F)F)c2)cc2c1OCC2` (centres unmarked) [Compound 238, 1-Methyl-5-oxo-N-(5-((3-(trifluoromethyl)benzyl)oxy)-2,3-dihydrobenzofuran-7-yl)pyrrolidine-2-carboxamide], 50 to 300 nM.
Under `COc1ccc(Oc2ccc(C(F)(F)F)cc2)cc1NC(=O)[C@@H]1CCCN1CC(N)=O` [Compound 337, (S)-1-(2-Amino-2-oxoethyl)-N-(2-methoxy-5-(4-(trifluoromethyl)phenoxy)-phenyl)pyrrolidine-2-carboxamide] stands 50 to 300 nM.
Consider `COc1ccc(OC2CCC(F)(F)CC2)cc1NC(=O)C1CCC(=O)N1C` (centres unmarked) [Compound 247, N-(5-((4,4-Difluorocyclohexyl)oxy)-2-methoxyphenyl)-1-methyl-5-oxopyrrolidine-2-carboxamide], for which the IC50 was 50 to 300 nM.
As for `COc1ccc(OCc2cccc(C(F)(F)F)c2)cc1NC(=O)C1CCC(=O)N1` (centres unmarked) [Compound 52, N-(2-Methoxy-5-((3-(trifluoromethyl)benzyl)oxy)phenyl)-5-oxopyrrolidine-2-carboxamide], the figure is 50 to 300 nM.
As for `COc1ccc(Oc2ccc(OC)c(NC(=O)C3CCC(=O)N3C)c2)cc1F` (centres unmarked) [Compound 295, N-(5-(3-Fluoro-4-methoxyphenoxy)-2-methoxyphenyl)-1-methyl-5-oxo-pyrrolidine-2-carboxamide], the IC50 lay in the range of 50 to 300 nM.
Under `COCC(=O)N1CCC[C@H]1C(=O)Nc1cc(Oc2ccc(C(F)(F)F)cc2)ccc1OC` [Compound 336, (S)—N-(2-Methoxy-5-(4-(trifluoromethyl)phenoxy)phenyl)-1-(2-methoxyacetyl)-pyrrolidine-2-carboxamide] stands 50 to 300 nM; under `CN1C(=O)CCC1C(=O)Nc1cc(Oc2ccc(C(F)(F)F)cn2)ccc1F` (centres unmarked) [Compound 368, N-(2-Fluoro-5-((5-(trifluoromethyl)pyridin-2-yl)oxy)phenyl)-1-methyl-5-oxopyrrolidine-2-carboxamide], 50 to 300 nM; under `CN1C(=O)CC[C@H]1C(=O)Nc1cc(Oc2ccc(F)c(F)c2)cc2c1OCCO2` [Compound 98, (S)—N-(7-(3,4-Difluorophenoxy)-2,3-dihydrobenzo[b][1,4]dioxin-5-yl)-1-methyl-5-oxopyrrolidine-2-carboxamide], 50 to 300 nM.
As for `CN1C(=O)CCC1C(=O)Nc1cc(COc2ccc(F)c(F)c2)cc2c1CCO2` (centres unmarked) [Compound 243, N-(6-((3,4-Difluorophenoxy)methyl)-2,3-dihydrobenzofuran-4-yl)-1-methyl-5-oxopyrrolidine-2-carboxamide], the figure is 301 to 2000 nM.

The IC50 is the point on the concentration scale where inhibition reaches its midpoint.
